Read-outs that look alike come from different tables or passages of the source.
Target: human recombinant ATX (Homo sapiens, UniProt Q13822)
Assay: Autotaxin (ATX) activity Quanta Red assay
Assay type: biochemical
Outline: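 Recombinant human ATX reaction stopped after 2 h with Quanta Red stop solution; fluorescence read at […]. Controls with DMSO, with and without ATX; IC50 in duplicate.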

[1] = read-out: Activity (ATX activity, Quanta Red assay; IC50)
[2] = human recombinant ATX 0.8 μg/mL, 2 hours at room temperature, IC50 determined in duplicate, read-out: Activity (ATX activity, Quanta Red assay; IC50)
[3] = Table 2: additional compounds tested for ATX activity (Quanta Red Assay), read-out: Activity

| Compound | IC50 [1] [nM] | also measured |
| --- | --- | --- |
| COc1ccc(CNC(=O)CCc2nc3cc(C)cnc3n2Cc2ccc(OC(F)(F)F)cc2)cc1 [Example 53, N-(4-Methoxy-benzyl)-3-[6-methyl-3-(4-trifluoromethoxy-benzyl)-3H-imidazo[4,5-b]pyridin-2-yl]-propionamide] | 38 |  |
| O=C(CCc1nc2cccnc2n1Cc1ccccc1)NCc1cccs1 [Example 3, 3-(3-Benzyl-3H-imidazo[4,5-b]pyridin-2-yl)-N-thiophen-2-ylmethyl-propionamide] |  | IC50 [2]: 855 nM |
| C[C@H](NC(=O)CCc1cc2cccnc2n1Cc1ccc(F)cc1)c1ccc(F)cc1 [Example 140, 3-[1-(4-Fluoro-benzyl)-1H-pyrrolo[2,3-b]pyridin-2-yl]-N-[(S)-1-(4-fluoro-phenyl)-ethyl]-propionamide] | 13 |  |
| O=C(CCc1nc2cccnc2n1Cc1ccc(OC(F)(F)F)cc1)N[C@@H](Cc1ccccc1)C(=O)O [Example 199, (S)-3-Phenyl-2-{3-[3-(4-trifluoromethoxy-benzyl)-3H-imidazo[4,5-b]pyridin-2-yl]-propionylamino}-propionic acid] | 71 |  |
| O=C(CCc1nc2cccnc2n1Cc1ccc(OC(F)(F)F)cc1)NCc1ccc(F)cc1 [Example 30, N-(4-Fluoro-benzyl)-3-[3-(4-trifluoromethoxy-benzyl)-3H-imidazo[4,5-b]pyridin-2-yl]-propionamide] | 5 |  |
| O=C(CCc1nc2cccnc2n1Cc1ccc(OC(F)(F)F)cc1)N[C@H]1CCCc2ccccc21 [Example 38, N-(S)-1,2,3,4-Tetrahydro-naphthalen-1-yl-3-[3-(4-trifluoromethoxy-benzyl)-3H-imidazo[4,5-b]pyridin-2-yl]-propionamide] | 9 |  |
| Cc1csc(NC(=O)CCc2nc3cccnc3n2Cc2ccc(OC(F)(F)F)cc2)n1 [Example 77, N-(4-Methyl-thiazol-2-yl)-3-[3-(4-trifluoromethoxy-benzyl)-3H-imidazo[4,5-b]pyridin-2-yl]-propionamide] | 714 |  |
| O=C(CCc1nc2cccnc2n1Cc1cccs1)NCc1ccc(F)cc1 [Example 224, N-(4-Fluoro-benzyl)-3-(3-thiophen-2-ylmethyl-3H-imidazo[4,5-b]pyridin-2-yl)-propionamide] |  | IC50 [3]: 685 nM |
| O=C(CCc1nc2cccnc2n1Cc1cccs1)NCc1ccccc1 [Example 226, N-Benzyl-3-(3-thiophen-2-ylmethyl-3H-imidazo[4,5-b]pyridin-2-yl)-propionamide] |  | IC50 [3]: 807 nM |
| Cc1cnc(NC(=O)CCc2nc3cccnc3n2Cc2ccc(OC(F)(F)F)cc2)s1 [Example 81, N-(5-Methyl-thiazol-2-yl)-3-[3-(4-trifluoromethoxy-benzyl)-3H-imidazo[4,5-b]pyridin-2-yl]-propionamide] | 1480 |  |
| C[C@H](NC(=O)CCc1nc2cccnc2n1Cc1ccc(OCc2ccccc2)cc1)c1ccc(F)cc1 [Example 80, 3-[3-(4-Benzyloxy-benzyl)-3H-imidazo[4,5-b]pyridin-2-yl]-N-[(S)-1-(4-fluoro-phenyl)-ethyl]-propionamide] | 844 |  |
| CC(C)(C)OC(=O)N1CCC[C@H](CNC(=O)CCc2nc3cccnc3n2Cc2ccc(OC(F)(F)F)cc2)C1 [Example 66, (R)-3-({3-[3-(4-Trifluoromethoxy-benzyl)-3H-imidazo[4,5-b]pyridin-2-yl]-propionylamino}-methyl)-piperidine-1-carboxylic acid tert-butyl ester] | 162 |  |
| C[C@H](NC(=O)CCc1nc2cccnc2n1Cc1ccc(C(F)(F)F)cc1)c1ccc(Cl)cc1 [Example 12, N-[(S)-1-(4-Chloro-phenyl)-ethyl]-3-[3-(4-trifluoromethyl-benzyl)-3H-imidazo[4,5-b]pyridin-2-yl]-propionamide] |  | IC50 [2]: 2 nM |
| COc1ccc(Cn2c(CCC(=O)N(C)Cc3ccc(F)cc3)nc3cccnc32)cc1 [Example 119, N-(4-Fluoro-benzyl)-3-[3-(4-methoxy-benzyl)-3H-imidazo[4,5-b]pyridin-2-yl]-N-methyl-propionamide] | 631 |  |
| COc1ccc(CNC(=O)CCc2nc3cccnc3n2Cc2ccc(OC(F)(F)F)cc2)cc1 [Example 14, N-(4-Methoxy-benzyl)-3-[3-(4-trifluoromethoxy-benzyl)-3H-imidazo[4,5-b]pyridin-2-yl]-propionamide] | 2 |  |
| Cc1ccc(CNC(=O)CCc2nc3cccnc3n2Cc2ccccc2)cc1 [Example 235, 3-(3-Benzyl-3H-imidazo[4,5-b]pyridin-2-yl)-N-(4-methyl-benzyl)-propionamide] |  | IC50 [3]: 627 nM |
| COc1ccc(Cn2c(CCC(=O)NCCc3ccccc3)nc3cccnc32)cc1 [Example 237, 3-[3-(4-Methoxy-benzyl)-3H-imidazo[4,5-b]pyridin-2-yl]-N-phenethyl-propionamide, reference compound] |  | IC50 (Table 3: commercially available compounds tested for Autotaxin activity (Quanta Red assay), read-out: Activity): 227 nM |
| CCCCNC(=O)CCc1nc2cccnc2n1Cc1ccccc1 [Example 228, 3-(3-Benzyl-3H-imidazo[4,5-b]pyridin-2-yl)-N-butyl-propionamide] |  | IC50 [3]: 8810 nM |

| Compound | IC50 [1] [nM] | also measured |
| --- | --- | --- |
| O=C(CCc1nc2cccnc2n1Cc1ccc(OC(F)(F)F)cc1)NC(CO)c1ccc(OC(F)(F)F)cc1 (centres unmarked) [Example 20, N-[2-Hydroxy-1-(4-trifluoromethoxy-phenyl)-ethyl]-3-[3-(4-trifluoromethoxy-benzyl)-3H-imidazo[4,5-b]pyridin-2-yl]-propionamide] | 3 |  |
| CS(=O)(=O)N1CCC(CNC(=O)CCc2nc3cccnc3n2Cc2ccc(OC(F)(F)F)cc2)CC1 [Example 214, N-(1-methanesulfonyl-piperidin-4-ylmethyl)-3-[3-(4-trifluoromethoxy-benzyl)-3H-imidazo[4,5-b]pyridin-2-yl]-propionamide] | 30 |  |
| O=C(COc1nc2cccnc2n1Cc1ccc(OC(F)(F)F)cc1)N[C@@H](CO)c1ccccc1 [Example 151, N-((R)-2-Hydroxy-1-phenyl-ethyl)-2-[3-(4-trifluoromethoxy-benzyl)-3H-imidazo[4,5-b]pyridin-2-yloxy]-acetamide] | 3 |  |
| O=C(CCc1nc2cccnc2n1Cc1ccc(C(F)(F)F)cc1)N[C@H](Cc1ccccc1)C(=O)O [Example 196, (R)-3-Phenyl-2-{3-[3-(4-trifluoromethyl-benzyl)-3H-imidazo[4,5-b]pyridin-2-yl]-propionylamino}-propionic acid] | 2 |  |
| CC(C)(NC(=O)CCc1nc2ccncc2n1Cc1ccc(F)cc1)c1ccccc1 [Example 136, 3-[3-(4-Fluoro-benzyl)-3H-imidazo[4,5-c]pyridin-2-yl]-N-(1-methyl-1-phenyl-ethyl)-propionamide] | 115 |  |
| CC[C@H](NC(=O)CCc1nc2cccnc2n1Cc1ccc(OC)cc1)c1ccccc1 [Example 93, 3-[3-(4-Methoxy-benzyl)-3H-imidazo[4,5-b]pyridin-2-yl]-N-((S)-1-phenyl-propyl)-propionamide] | 15 |  |
| COc1ccc(Cn2c(CCC(=O)NCc3ccccc3C)nc3cccnc32)cc1 [Example 106, 3-[3-(4-Methoxy-benzyl)-3H-imidazo[4,5-b]pyridin-2-yl]-N-(2-methyl-benzyl)-propionamide] | 98 |  |
| C[C@H](NC(=O)CCc1nc2cccnc2n1Cc1ccc(Br)cc1)c1ccc(Cl)cc1 [Example 21, 3-[3-(4-Bromo-benzyl)-3H-imidazo[4,5-b]pyridin-2-yl]-N-[(S)-1-(4-chloro-phenyl)-ethyl]-propionamide] | 5 |  |
| C[C@H](NC(=O)CCc1cc2cc(F)cnc2n1Cc1ccc(OC(F)(F)F)cc1)c1ccc(F)cc1 [Example 139, N-[(S)-1-(4-Fluoro-phenyl)-ethyl]-3-[5-fluoro-1-(4-trifluoromethoxy-benzyl)-1H-pyrrolo[2,3-b]pyridin-2-yl]-propionamide] | 13 |  |
| C[C@H](NC(=O)CCc1nc2cccnc2n1Cc1cccs1)c1ccc(Cl)cc1 [Example 44, N-[(S)-1-(4-Chloro-phenyl)-ethyl]-3-(3-thiophen-2-ylmethyl-3H-imidazo[4,5-b]pyridin-2-yl)-propionamide] | 12 |  |
| O=C(CCc1nc2cccnc2n1Cc1ccc(F)c(F)c1)N[C@@H]1c2ccccc2C[C@H]1O [Example 59, 3-[3-(3,4-Difluoro-benzyl)-3H-imidazo[4,5-b]pyridin-2-yl]-N-((1R,2R)-2-hydroxy-indan-1-yl)-propionamide] | 63 |  |
| C[C@H](NC(=O)NCc1nc2cccnc2n1Cc1ccc(F)cc1)c1ccc(F)cc1 [Example 160, 1-[3-(4-Fluoro-benzyl)-3H-imidazo[4,5-b]pyridin-2-ylmethyl]-3-[(S)-1-(4-fluoro-phenyl)-ethyl]-urea] |  | IC50 [2]: 80 nM |
| O=C(CCc1nc2cccnc2n1Cc1ccc(OC(F)(F)F)cc1)NC[C@H](O)c1ccccc1 [Example 37, N-((R)-2-Hydroxy-2-phenyl-ethyl)-3-[3-(4-trifluoromethoxy-benzyl)-3H-imidazo[4,5-b]pyridin-2-yl]-propionamide] | 7 |  |
| C[C@H](NC(=O)CCc1nc2cccnc2n1Cc1ccc(F)c(F)c1)c1ccccc1 [Example 86, 3-[3-(3,4-Difluoro-benzyl)-3H-imidazo[4,5-b]pyridin-2-yl]-N-((S)-1-phenyl-ethyl)-propionamide] | 5 |  |
| O=C(CCc1nc2ccncc2n1Cc1ccc(OC(F)(F)F)cc1)N[C@@H](CO)c1ccccc1 [Example 123, N-((R)-2-Hydroxy-1-phenyl-ethyl)-3-[3-(4-trifluoromethoxy-benzyl)-3H-imidazo[4,5-c]pyridin-2-yl]-propionamide] | 3 |  |
| COc1ccc(Cn2c(CCC(=O)N[C@@H](C)c3ccc(F)cc3)nc3cccnc32)cc1 [Example 96, N-[(S)-1-(4-Fluoro-phenyl)-ethyl]-3-[3-(4-methoxy-benzyl)-3H-imidazo[4,5-b]pyridin-2-yl]-propionamide] | 22 |  |
| C[C@H](NC(=O)CCc1nc2cccnc2n1Cc1ccc(F)c(F)c1)c1ccc(N2CCC(N(C)C)C2)cc1 (some centres unmarked) [Example 177] | 3 |  |
